In this assay the test system is P388 leukemia ip, CD2F1 mice, survival T/C. Put plainly: NCI In Vivo Anticancer Drug Screen. Data for tumor model P388 Leukemia (intraperitoneal) in CD2F1 (CDF1) mice. The conditions noted are these: endpoint: median survival time, higher = longer survival. In outline:
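Mice carrying the transplanted tumor received test compound or vehicle. Survival was recorded in each group, and the value is the treated-group measurement divided by that of the vehicle-treated control group.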

[1] abbreviates: dose: 60.0 mg/kg/injection, schedule: Q01DX005 (ip), vehicle: saline with Tween-80.
The mark [2] stands for this setting: dose: 120.0 mg/kg/injection, schedule: Q01DX005 (ip), vehicle: saline with Tween-80.
Where [3] appears, read: dose: 240.0 mg/kg/injection, schedule: Q01DX005 (ip), vehicle: saline with Tween-80.
Where [4] appears, read: dose: 50.0 mg/kg/injection, schedule: Q01DX009 (ip), vehicle: Klucel (hydroxypropylcellulose) (HPC).
The mark [5] stands for this setting: dose: 100.0 mg/kg/injection, schedule: Q01DX009 (ip), vehicle: Klucel (hydroxypropylcellulose) (HPC).
Where [6] appears, read: dose: 200.0 mg/kg/injection, schedule: Q01DX009 (ip), vehicle: Klucel (hydroxypropylcellulose) (HPC).
[7] abbreviates: dose: 100.0 mg/kg/injection, schedule: Q04DX002 (ip), vehicle: saline with Tween-80.
Where [8] appears, read: dose: 200.0 mg/kg/injection, schedule: Q04DX002 (ip), vehicle: saline with Tween-80.
Setting [9] is: dose: 200.0 mg/kg/injection, schedule: Q01DX009 (ip), vehicle: saline.
Setting [10] is: dose: 400.0 mg/kg/injection, schedule: Q04DX002 (ip), vehicle: saline with Tween-80.
The mark [11] stands for this setting: dose: 100.0 mg/kg/injection, schedule: Q01DX001 (ip), vehicle: saline with Tween-80.
The mark [12] stands for this setting: dose: 50.0 mg/kg/injection, schedule: Q01DX005 (ip), vehicle: saline with Tween-80.
Where [13] appears, read: dose: 100.0 mg/kg/injection, schedule: Q01DX005 (ip), vehicle: saline with Tween-80.
Where [14] appears, read: dose: 200.0 mg/kg/injection, schedule: Q01DX005 (ip), vehicle: saline with Tween-80.

SMILES strings stand for the structures. “And” between values parts separate entries of the source, which are not always exact repeats. Equal entries are not always repeated. Toxic doses and inconclusive results are not listed. Peptide text beside a SMILES is read from it. * marks the point of attachment. Cbz = O=C(OCc1ccccc1)*

As to `O=C1c2ccccc2C(=O)N1CCc1ncc[nH]1`, the T/C was 99 % of control under setting [1], 99 % of control under setting [2] and 100 % of control under setting [3].
Regarding `CC(C)(C)n1nnnc1Cl`, the T/C is 107 % of control under setting [4], 102 % of control under setting [5] and 107 % of control under setting [6].
As to `Cc1ccc(C(=O)Nc2ccccn2)cc1`, the T/C under setting [4] was 100 % of control, the T/C under setting [5] was 93 % of control and the T/C under setting [6] is 100 % of control.
As for `Cc1ccc(C)n1-c1ccc(OCC(N)=O)cc1`, the T/C runs as follows: under setting [1], 104 % of control; under setting [2], 97 % of control; under setting [3], 90 % of control.
Turning to `CC(C)CC(=O)CC(O)(C(F)(F)F)C(F)(F)F`, the T/C by setting is: (dose: 100.0 mg/kg/injection, schedule: Q01DX009 (ip), vehicle: saline with Tween-80) 109 % of control; (dose: 200.0 mg/kg/injection, schedule: Q01DX009 (ip), vehicle: saline with Tween-80) 113 % of control.
Regarding `Cn1c2ccccc2c(=O)c2c(O)cc3c(c21)CC(C1(C)CO1)O3` (centres undefined), the T/C is 99 % of control (dose: 2.0 mg/kg/injection, schedule: Q01DX005 (ip), vehicle: Klucel (hydroxypropylcellulose) (HPC)); 105 % of control and 107 % of control (dose: 4.0 mg/kg/injection, schedule: Q01DX005 (ip), vehicle: Klucel (hydroxypropylcellulose) (HPC)); 103 % of control and 107 % of control (dose: 8.0 mg/kg/injection, schedule: Q01DX005 (ip), vehicle: Klucel (hydroxypropylcellulose) (HPC)); 108 % of control and 116 % of control (dose: 16.0 mg/kg/injection, schedule: Q01DX005 (ip), vehicle: Klucel (hydroxypropylcellulose) (HPC)).
On to `NC(Cc1ccc(O)c(Cl)c1)C(=O)O` (centres undefined), for which the T/C is, setting by setting: (dose: 50.0 mg/kg/injection, schedule: Q01DX005 (ip), vehicle: saline) 98 % of control; (dose: 100.0 mg/kg/injection, schedule: Q01DX005 (ip), vehicle: saline) 98 % of control; (dose: 200.0 mg/kg/injection, schedule: Q01DX005 (ip), vehicle: saline) 95 % of control.
Turning to `O=c1[nH]c2cc(Cl)ccc2nc1/C=C(\O)c1ccc(N2CCN(c3ccc(/C(O)=C/c4nc5ccc(Cl)cc5[nH]c4=O)cc3)CC2)cc1`, the T/C reads like this: (dose: 60.0 mg/kg/injection, schedule: Q01DX005 (ip), vehicle: Klucel + Tween-80) 98 % of control; (dose: 120.0 mg/kg/injection, schedule: Q01DX005 (ip), vehicle: Klucel + Tween-80) 93 % of control; (dose: 240.0 mg/kg/injection, schedule: Q01DX005 (ip), vehicle: Klucel + Tween-80) 86 % of control.
In the case of `CC(C)=CCCC(C)=CCON(C)C` (mixture of isomers), the T/C is 92 % of control under setting [7] and 101 % of control under setting [8].
On to `Cc1cc(NCCCCCCNc2cc(C)nc3ccc(N)cc23)c2cc(N)ccc2n1`, for which the T/C is, setting by setting: (dose: 75.0 mg/kg/injection, schedule: Q04DX003 (ip), vehicle: alcohol) 177 % of control; (dose: 150.0 mg/kg/injection, schedule: Q04DX003 (ip), vehicle: alcohol) 186 % of control; (dose: 300.0 mg/kg/injection, schedule: Q04DX003 (ip), vehicle: alcohol) 190 % of control.
`COc1ccc(Cc2ccc[nH]2)cc1`: the T/C reads like this: (dose: 100.0 mg/kg/injection, schedule: Q01DX001 (ip), vehicle: distilled water + alcohol) 97 % of control; (dose: 200.0 mg/kg/injection, schedule: Q01DX001 (ip), vehicle: distilled water + alcohol) 97 % of control; (dose: 400.0 mg/kg/injection, schedule: Q01DX001 (ip), vehicle: distilled water + alcohol) 96 % of control.
With `C=CC(=O)NCCCCCC(=O)O`, the T/C is, setting by setting: (dose: 50.0 mg/kg/injection, schedule: Q01DX009 (ip), vehicle: saline) 103 % of control; (dose: 100.0 mg/kg/injection, schedule: Q01DX009 (ip), vehicle: saline) 98 % of control; under setting [9], 103 % of control.
For the compound `COc1ccc2ncc(C)c(COC(C)=O)c2c1`, the T/C is, setting by setting: under setting [7], 102 % of control; under setting [8], 93 % of control; under setting [10], 97 % of control.
As for `O=P(O)(O)SP(=O)(O)O.[Zn+2]`, the T/C is 101 % of control (dose: 100.0 mg/kg/injection, schedule: Q04DX003 (ip), vehicle: Klucel (hydroxypropylcellulose) (HPC)) and 105 % of control (dose: 200.0 mg/kg/injection, schedule: Q04DX003 (ip), vehicle: Klucel (hydroxypropylcellulose) (HPC)).
As to `CCCn1c(CC)nc([N+](=O)[O-])c1Sc1ncnc2nc[nH]c12`, the T/C (dose: 12.5 mg/kg/injection, schedule: Q01DX005 (ip), vehicle: Klucel (hydroxypropylcellulose) (HPC)) is 107 % of control; the T/C (dose: 25.0 mg/kg/injection, schedule: Q01DX005 (ip), vehicle: Klucel (hydroxypropylcellulose) (HPC)) is 123 % of control; the T/C (dose: 200.0 mg/kg/injection, schedule: Q01DX005 (ip), vehicle: Klucel (hydroxypropylcellulose) (HPC)) was 111 % of control.
Consider `C[C@]12CC[C@H](OC(=O)Cc3ccc(N(CCCl)CCCl)cc3)CC1CC[C@@H]1C2CC[C@]2(C)NC(=O)CCC12` (some centres undefined), for which the T/C (dose: 50.0 mg/kg/injection, schedule: Q01DX001 (ip), vehicle: saline with Tween-80) was 195 % of control; the T/C under setting [11] is 243 % of control and 294 % of control.
Consider `COC(=O)c1nnn(-c2ccc(S(N)(=O)=O)cc2)c1C(=O)c1ccc(OC)cc1`, for which the T/C is 100 % of control under setting [1], 99 % of control under setting [2] and 94 % of control under setting [3].
`CCN1CCC(=O)C1`: the T/C reads like this: (dose: 50.0 mg/kg/injection, schedule: Q04DX003 (ip), vehicle: saline with Tween-80) 104 % of control; (dose: 100.0 mg/kg/injection, schedule: Q04DX003 (ip), vehicle: saline with Tween-80) 105 % of control; (dose: 200.0 mg/kg/injection, schedule: Q04DX003 (ip), vehicle: saline with Tween-80) 105 % of control.
`c1ccc2c3c(ccc2c1)OCCOCCOCCOc1ccc2ccccc2c1-3`: the T/C reads like this: under setting [11], 98 % of control; (dose: 200.0 mg/kg/injection, schedule: Q01DX001 (ip), vehicle: saline with Tween-80) 92 % of control; (dose: 400.0 mg/kg/injection, schedule: Q01DX001 (ip), vehicle: saline with Tween-80) 87 % of control.
In the case of `c1csc(C[N+]23CN4CN(CN(C4)C2)C3)c1`, the T/C was 109 % of control (dose: 130.0 mg/kg/injection, schedule: Q01DX009 (ip), vehicle: saline); 118 % of control under setting [9]; 123 % of control (dose: 300.0 mg/kg/injection, schedule: Q01DX009 (ip), vehicle: saline).
Take `CCc1ccc2c(-c3ccccc3)c3ccccc3c(-c3ccccc3)c2c1`: the T/C was 96 % of control (dose: 12.5 mg/kg/injection, schedule: Q01DX005 (ip), vehicle: saline with Tween-80); 99 % of control (dose: 25.0 mg/kg/injection, schedule: Q01DX005 (ip), vehicle: saline with Tween-80); 88 % of control and 90 % of control under setting [12]; 90 % of control under setting [13]; 88 % of control under setting [14].
For `Nc1nnc2nc(CC(=O)/C=C/c3ccccc3)/c(=C/C(=O)/C=C/c3ccccc3)n12`, the T/C by setting is: under setting [7], 104 % of control; under setting [8], 107 % of control; under setting [10], 100 % of control.
`N#CC1CCCC2OCC(c3ccccc3)N12` (centres undefined): the T/C by setting is: (dose: 60.0 mg/kg/injection, schedule: Q01DX005 (ip), vehicle: Klucel (hydroxypropylcellulose) (HPC)) 119 % of control; (dose: 120.0 mg/kg/injection, schedule: Q01DX005 (ip), vehicle: Klucel (hydroxypropylcellulose) (HPC)) 119 % of control; (dose: 240.0 mg/kg/injection, schedule: Q01DX005 (ip), vehicle: Klucel (hydroxypropylcellulose) (HPC)) 117 % of control.
`CC(NC(=O)C(Cc1ccc(O)cc1)NC(=O)C(C)NC(=O)OCc1ccccc1)C(=O)O` (stereo not drawn) (Cbz-Ala-Tyr-Ala-OH; configuration not given here): the T/C under setting [12] was 100 % of control, the T/C under setting [13] was 104 % of control and the T/C under setting [14] was 99 % of control.
For the compound `CC1(C)COC(c2ccc(C(C)(C)C)cc2)=N1`, the T/C by setting is: (dose: 3.13 mg/kg/injection, schedule: Q01DX009 (ip), vehicle: saline with Tween-80) 105 % of control; (dose: 6.25 mg/kg/injection, schedule: Q01DX009 (ip), vehicle: saline with Tween-80) 105 % of control; (dose: 12.5 mg/kg/injection, schedule: Q01DX009 (ip), vehicle: saline with Tween-80) 98 % of control.

Source of the values: PubChem BioAssay AID330 (DTP/NCI, 2004).
